Assay results reported in patent US20160160234A1, “COMPOSITION FOR TRANSFERRING GENE TO CELL” (ISHIHARA SANGYO KAISHA, LTD., priority 2013, published 2016).

What was measured:
RAW264.7 cells = test: Luciferase gene expression after transfection with pCMV-GL3 plasmid (ONE-Glo Luciferase Assay System); type: cell-based
Procedure: Gene transfer using FuGENE HD transfection reagent (Roche) was performed as follows.
Gene transfer using Polyethylenimine Max (Polyscience) was performed as follows. 13.5 μL of water was added to 1.5 μL of 1 mg/mL Polyethylenimine Max (pH of 7, MW of 25,000).

K562 cells = test: as above; type: cell-based; settings: Example 16, in combination with the composition of the present invention or Lipofectamine LTX&PLUS reagent
Procedure: (§1) The next day, whether gene transfer was achieved was confirmed by measuring the enzyme activity (relative value) of luciferase protein produced from the pCMV-GL3 plasmid by using ONE-Glo Luciferase Assay System (Promega).
K562 cells, which are suspension cultured cells, were seeded in a 96-well plate at a cell density of 2×10^4 cells/well on the day of transfection.
154 μL of a 15 mg/mL sericin PBS solution was added to 11 μL of a ½% sorbitan sesquioleate (Nacalai Tesque, Inc.) ethanol solution, and the mixture was mixed by pipetting.
48 μL of the prepared solution above was added to 40 μL of a 1/10 mg/mL pCMV-GL3 plasmid solution, and the mixture was mixed by pipetting. 20 μL of a 1 mg/mL protamine sulfate PBS solution was then added to prepare a test composition (prepared for each kind of cells; total of three tubes). The test composition was added at 15 μL/well to the cell culture media.
Gene transfer using Lipofectamine LTX&PLUS reagent (Invitrogen) was performed as follows. 0.7 μL of a 1 mg/mL pCMV-GL3 plasmid solution and 0.7 μL of a PLUS reagent were added to 140 μL of Opti-MEM I Reduced Serum Medium (Gibco), and the mixture was allowed to stand for 5 minutes. 2.8 μL of Lipofectamine LTX reagent was further added thereto, and the mixture was allowed to stand for 25 minutes, after which it was added at 20 μL/well to the cell culture media. […]

A549 cells [1] = test system: A549 cells
Procedure: A549 cells and NIH-3T3 cells, both of which are adherent cultured cells, were individually seeded in a 96-well plate at a cell density of 4×10^3 cells/well one day before transfection.
84 μL of a 10 mg/mL sericin (Wako Pure Chemical Industries, Ltd., trade name: Pure Sericin) aqueous solution was added to 6 μL of a ½% sorbitan sesquioleate (Nacalai Tesque, Inc.) ethanol solution, and the mixture was mixed by pipetting.
As a virus-derived envelope, a 47.8 HAU/μL inactivated HVJ envelope (GenomONE-CF: registered trademark, produced by Ishihara Sangyo Kaisha, Ltd.) suspension, which is derived from Sendai virus, was used in the experiment.
After 54 μL of PBS was added to 6 μL of the inactivated HVJ envelope suspension, 6 μL of a 2% Triton X-100 PBS solution was added thereto. The mixture was centrifuged at 4° C., 10,000 g for 5 minutes with a high-speed refrigerated microcentrifuge, thereby pelletting down the inactivated HVJ envelope. […] After 2.5 μL of the liquid mixture of the inactivated HVJ envelope and the pCMV-GL3 plasmid was transferred to each tube, 28 μL of a 1/20 mg/mL laminin (SIGMA) aqueous solution or water was individually added thereto, and each mixture was mixed by pipetting. […]

NIH-3T3 cells = test: Luciferase gene expression after transfection with pCMV-GL3 plasmid (ONE-Glo Luciferase Assay System); type: cell-based
Procedure: NIH-3T3 cells, which are adherent cultured cells, were seeded in a 96-well plate at a cell density of 4×10^3 cells/well one day before transfection.
16.8 μL of a 5 mg/mL sericin PBS solution was added to 1.2 μL of a ¼% sorbitan sesquioleate (Nacalai Tesque, Inc.) ethanol solution, and the mixture was mixed by pipetting.
16.8 μL of a 5 mg/mL sericin PBS solution was added to 1.2 μL of a ¼% sorbitan monooleate (SIGMA) ethanol solution, and the mixture was mixed by pipetting.
0.6 μL of a ⅕% L-α-dioleoyl phosphatidylethanolamine (Wako Pure Chemical Industries, Ltd.; hereinafter referred to as “DOPE”) ethanol solution or 0.6 μL of ethanol was individually added to 0.6 μL of a ⅕% cardiolipin (SIGMA) ethanol solution. 16.8 μL of a 5 mg/mL sericin PBS solution was further added to each mixture, and each of the resulting mixtures was mixed by pipetting.
15 μL of a 1/10 mg/mL pCMV-GL3 plasmid solution was added to 18 μL of each of the above prepared solutions, and each mixture was mixed by pipetting. 7.5 μL of a 1 mg/mL protamine sulfate PBS solution was then added to each of the resulting mixtures, thereby preparing test compositions. Each of these test compositions was added at 15 μL/well to the cell culture media.
11.2 μL of ¼, ½, 3, 5, 20, 30, or 50 mg/mL sericin PBS solution or PBS was individually added to 0.8 μL of a ½% sorbitan sesquioleate (Nacalai Tesque, Inc.) ethanol solution, and each mixture was mixed by pipetting.
10 μL of a 1/10 mg/mL pCMV-GL3 plasmid solution was added to 12 μL of each of the prepared solutions above, and each mixture was mixed by pipetting.

Jurkat cells = test: as above; settings: Example 12, lipid ethanol solutions ¼% or ⅕%, 5 mg/mL sericin, 1 mg/mL protamine sulfate, 15 μL/well, next day
Procedure: Jurkat cells, which are suspension cultured cells, were seeded in a 96-well plate at a cell density of 4×10^4 cells/well on the day of transfection.
280 μL of a 15 mg/mL sericin (Wako Pure Chemical Industries, Ltd., trade name: Pure Sericin) PBS solution was added to 20 μL of a ½% sorbitan sesquioleate (Nacalai Tesque, Inc.) ethanol solution, and the mixture was mixed by pipetting.
The inactivated HVJ envelope suspension was diluted 2-fold, 4-fold, 8-fold, 16-fold, and 32-fold with PBS. 8 μL of a 0.3% Triton X-100 PBS solution was added to 4 μL of each of these diluted, inactivated HVJ envelope suspensions, and each mixture was centrifuged at 4° C., 10,000 g for 5 minutes with a high-speed refrigerated microcentrifuge, thereby pelleting down the inactivated HVJ envelope. […] 4 μL of PBS was added to 12.5 μL of each of the individual HVJ envelope suspensions containing the plasmid or to a 1/10 mg/mL pCMV-GL3 plasmid solution, and 20 μL of the liquid mixture of sorbitan sesquioleate and sericin prepared in advance was further added to each mixture. After each of the resulting mixtures was mixed by pipetting, 6.25 μL of a 1 mg/mL protamine sulfate PBS solution was added to each mixture, thereby preparing test compositions. Each of these test compositions was added at 9.5 μL/well to the cell culture medium.
as §1
112 μL of a 15 mg/mL sericin (Wako Pure Chemical Industries, Ltd., trade name: Pure Sericin) PBS solution was added to 8 μL of a ½% sorbitan sesquioleate (Nacalai Tesque, Inc.) ethanol solution, and the mixture was mixed by pipetting.
10 μL of a 0.2% Triton X-100 PBS solution was added to 1 μL of the inactivated HVJ envelope suspension, and the mixture was centrifuged at 4° C., 10,000 g for 5 minutes with a high-speed refrigerated microcentrifuge, thereby pelletting down the inactivated HVJ envelope. […]

A549 cells [2] = test: Gene transfer of pTurboGFP-N plasmid observed with a fluorescence microscope; type: cell-based; settings: Example 1, 5 μL/well, next day, FIG. 3
THP-1 cells = test: as above; type: cell-based; settings: Example 1, 5 μL/well, next day, FIG. 3
[3] = Example 16, in combination with the composition of the present invention or Lipofectamine LTX&PLUS reagent
[4] = Example 12, lipid ethanol solutions ¼% or ⅕%, 5 mg/mL sericin, 1 mg/mL protamine sulfate, 15 μL/well, next day
[5] = Example 11, pCMV-GL3 in inactivated HVJ envelope (component F) in all compositions, 8.1 μL/well, next day

## O=C(NCCCNc1nc(Nc2cccc(NC(=O)N3CCCC3)c2)ncc1I)c1cccs1 [compound A, N-[3-[[5-iodo-4-[[3-[(2-thienylcarbonyl)amino]propyl]amino]-2-pyrimidinyl]amino]phenyl]-1-pyrrolidinecarboxamide]
RAW264.7 cells; [3]
  improvement in gene expression by compound A used in combination with a gene transfer vector: improvement in the gene expression was confirmed
RAW264.7 cells; Example 17, in combination with the composition of the present invention, Lipofectamine LTX&PLUS reagent, FuGENE HD transfection reagent, or Polyethylenimine Max
  improvement in gene expression by compound A used in combination with a gene transfer vector: improvement in gene expression was confirmed
K562 cells
  improvement in gene expression by compound A used in combination with a gene transfer vector: improvement in the gene expression was confirmed
A549 cells [1]; [3]
  improvement in gene expression by compound A used in combination with a gene transfer vector: improvement in the gene expression was confirmed

## Sericin
NIH-3T3 cells; Example 13, Sericin concentration 0 mg/mL (PBS), with ½% sorbitan sesquioleate and 1 mg/mL protamine sulfate, 15 μL/well
  Luciferase gene expression level (relative value): 346
NIH-3T3 cells; Example 13, Sericin concentration 3 mg/mL, with ½% sorbitan sesquioleate and 1 mg/mL protamine sulfate, 15 μL/well
  Luciferase gene expression level (relative value): 761,785
NIH-3T3 cells; Example 13, Sericin concentration 5 mg/mL, with ½% sorbitan sesquioleate and 1 mg/mL protamine sulfate, 15 μL/well
  Luciferase gene expression level (relative value): 729,703
NIH-3T3 cells; Example 13, Sericin concentration 20 mg/mL, with ½% sorbitan sesquioleate and 1 mg/mL protamine sulfate, 15 μL/well
  Luciferase gene expression level (relative value): 762,661
NIH-3T3 cells; Example 13, Sericin concentration 30 mg/mL, with ½% sorbitan sesquioleate and 1 mg/mL protamine sulfate, 15 μL/well
  Luciferase gene expression level (relative value): 458,447
NIH-3T3 cells; Example 13, Sericin concentration 50 mg/mL, with ½% sorbitan sesquioleate and 1 mg/mL protamine sulfate, 15 μL/well
  Luciferase gene expression level (relative value): 24,194
NIH-3T3 cells; Example 13, Sericin concentration ¼ mg/mL, with ½% sorbitan sesquioleate and 1 mg/mL protamine sulfate, 15 μL/well
  Luciferase gene expression level (relative value): 77,190
NIH-3T3 cells; Example 13, Sericin concentration ½ mg/mL, with ½% sorbitan sesquioleate and 1 mg/mL protamine sulfate, 15 μL/well
  Luciferase gene expression level (relative value): 285,344
NIH-3T3 cells; Example 13, ¼ to 50 mg/mL sericin
  gene expression compared with the case where sericin was not used: gene expression was improved

## cardiolipin
NIH-3T3 cells; [4]
  Luciferase gene expression level (relative value): makes it possible to introduce a gene
Jurkat cells
  Luciferase gene expression level (relative value): makes it possible to introduce a gene

## protamine sulfate [component C]
NIH-3T3 cells; [5]
  Luciferase gene expression level (relative value): gene transfer was observed
A549 cells [2]
  gene transfer (green fluorescent protein TurboGFP observed with a fluorescence microscope): Almost no gene transfer
THP-1 cells
  gene transfer (green fluorescent protein TurboGFP observed with a fluorescence microscope): Almost no gene transfer
A549 cells [1]; [5]
  Luciferase gene expression level (relative value): gene transfer was observed

## sorbitan monooleate
NIH-3T3 cells; [4]
  Luciferase gene expression level (relative value): makes it possible to introduce a gene
Jurkat cells
  Luciferase gene expression level (relative value): makes it possible to introduce a gene

## sorbitan sesquioleate
NIH-3T3 cells; [4]
  Luciferase gene expression level (relative value): makes it possible to introduce a gene
NIH-3T3 cells; Example 14, 1/50 to 5/2% sorbitan sesquioleate
  gene expression: gene expression was observed
NIH-3T3 cells; Example 14, Sorbitan sesquioleate concentration 1/2%, with 10 mg/mL sericin and 1 mg/mL protamine sulfate, 15 μL/well
  Luciferase gene expression level (relative value): 1,349,057
NIH-3T3 cells; Example 14, Sorbitan sesquioleate concentration 1/10%, with 10 mg/mL sericin and 1 mg/mL protamine sulfate, 15 μL/well
  Luciferase gene expression level (relative value): 291,463
NIH-3T3 cells; Example 14, Sorbitan sesquioleate concentration 1/50%, with 10 mg/mL sericin and 1 mg/mL protamine sulfate, 15 μL/well
  Luciferase gene expression level (relative value): 887
NIH-3T3 cells; Example 14, Sorbitan sesquioleate concentration 5/2%, with 10 mg/mL sericin and 1 mg/mL protamine sulfate, 15 μL/well
  Luciferase gene expression level (relative value): 425,949
Jurkat cells
  Luciferase gene expression level (relative value): makes it possible to introduce a gene
